Results: ChEMBL document CHEMBL4680351, “Antimicrobial and cytotoxic effects of ammonium derivatives of diterpenoids steviol and isosteviol” (Bioorg Med Chem, 2021)
In brackets after ≈: the same amount, converted by molar mass. Blank lines part the entries; values can stand above or below the compound they belong to. Activity calls are given as the source filed them. The calls are words filed in the database; no cut-off is given here.

How the values were obtained:
Staphylococcus aureus [1] = experiment: Bactericidal activity against Staphylococcus aureus 209P measured every 24 hrs for 5 days by serial dilution method; type: functional; settings: 120 h, time 5 day
Staphylococcus aureus [2] = experiment: Bactericidal activity against Staphylococcus aureus MRSA-2 measured every 24 hrs for 5 days by serial dilution method; type: functional; settings: MRSA-2, 120 h, time 5 day
Staphylococcus aureus [3] = experiment: Antibacterial activity against Staphylococcus aureus MRSA-2 assessed as bacterial growth inhibition in Mueller-Hinton broth 2 measured every 24 hrs for 5 days by serial dilution method; type: functional; settings: MRSA-2, 120 h, time 5 day
Staphylococcus aureus [4] = experiment: Antibacterial activity against Staphylococcus aureus 209P assessed as bacterial growth inhibition in Mueller-Hinton broth 2 measured every 24 hrs for 5 days by serial dilution method; type: functional; settings: 120 h, time 5 day
Staphylococcus aureus [5] = experiment: Antibacterial activity against Staphylococcus aureus MRSA-1 assessed as bacterial growth inhibition in Mueller-Hinton broth 2 measured every 24 hrs for 5 days by serial dilution method; type: functional; settings: MRSA-1, 120 h, time 5 day
Staphylococcus aureus [6] = experiment: Bactericidal activity against Staphylococcus aureus MRSA-1 measured every 24 hrs for 5 days by serial dilution method; type: functional; settings: MRSA-1, 120 h, time 5 day
Staphylococcus aureus [7] = experiment: Induction of morphological changes in Staphylococcus aureus 209P assessed as change in cytoplasmic content at 3 uM by TEM analysis; type: functional, organism-based
HeLa = experiment: Cytotoxicity against human HeLa cells assessed as reduction in cell viability by DAPI staining based assay
PC-3 = experiment: Cytotoxicity against human PC-3 cells assessed as reduction in cell viability by DAPI staining based assay
MCF7 [8] = experiment: Induction of apoptosis in human MCF7 cells assessed as activation of JNK at 5 uM after 24 hrs by fluorescence assay; type: functional, cell-based
[9] = Selectivity index, ratio of IC50 for human WI-38 cells to IC50 for human HeLa cells; type: toxicity; settings: WI-38 cells versus HeLa cells, read-out: Ratio IC50
Cell membrane [10] = experiment: Induction of cytoplasmic membrane damage in Staphylococcus aureus 209P assessed as crystal violet absorption at 0.7 uM after 30 mins by crystal violet staining based microplate reader analysis (reference value: […] %); type: subcellular
MCF7 [11] = experiment: Induction of apoptosis in human MCF7 cells assessed as activation of Bcl-2 at 5 uM after 24 hrs by fluorescence assay; type: functional, cell-based
MCF7 [12] = experiment: Induction of apoptosis in human MCF7 cells assessed as late apoptotic cells at 10 uM after 24 hrs by annexin V-FITC and propidium iodide staining based flow cytometry (reference value: 3.4 %); type: functional
MCF7 [13] = experiment: Induction of apoptosis in human MCF7 cells assessed as viable cells at 10 uM after 24 hrs by annexin V-FITC and propidium iodide staining based flow cytometry (reference value: 91.42 %); type: functional; settings: read-out: Activity
Cell membrane [14] = experiment: Induction of cytoplasmic membrane damage in Staphylococcus aureus 209P assessed as crystal violet absorption at 6 uM after 30 mins by crystal violet staining based microplate reader analysis (reference value: […] %); type: subcellular
MCF7 [15] = experiment: Induction of apoptosis in human MCF7 cells assessed as late apoptotic cells at 5 uM after 24 hrs by annexin V-FITC and propidium iodide staining based flow cytometry (reference value: 3.4 %); type: functional
Cell membrane [16] = experiment: Induction of cytoplasmic membrane damage in Staphylococcus aureus 209P assessed as crystal violet absorption at 3 uM after 30 mins by crystal violet staining based microplate reader analysis (reference value: […] %); type: subcellular
Staphylococcus aureus [17] = experiment: Antibacterial activity against Staphylococcus aureus 209P assessed as bacterial growth inhibition; type: functional
MCF7 [18] = experiment: Induction of apoptosis in human MCF7 cells assessed as early apoptotic cells at 5 uM after 24 hrs by annexin V-FITC and propidium iodide staining based flow cytometry (reference value: 5.03 %); type: functional
MCF7 [19] = experiment: Induction of apoptosis in human MCF7 cells assessed as activation of Akt at 5 uM after 24 hrs by fluorescence assay; type: functional, cell-based
MCF7 [20] = experiment: Induction of mitochondrial membrane potential loss in human MCF7 cells assessed as cell population with mitochondrial membrane potential collapse at 10 uM after 24 hrs by JC-10 staining-based flow cytometric analysis (reference value: 1.05 %); type: functional
A549 = experiment: Cytotoxicity against human A549 cells assessed as reduction in cell viability by DAPI staining based assay
MCF7 [21] = experiment: Induction of apoptosis in human MCF7 cells assessed as activation of caspase-9 at 5 uM after 24 hrs by fluorescence assay relative to control; type: functional
Staphylococcus aureus [22] = experiment: Bacteriostatic activity against Staphylococcus aureus MRSA-2 measured every 24 hrs for 5 days by serial dilution method relative to amoxicillin; type: functional; settings: time 5 day
MCF7 [23] = experiment: Induction of mitochondrial membrane potential loss in human MCF7 cells assessed as cell population with intact mitochondrial membrane potential at 10 uM after 24 hrs by JC-10 staining-based flow cytometric analysis (reference value: 98.73 %); type: functional
Staphylococcus aureus [24] = experiment: Induction of morphological changes in Staphylococcus aureus 209P assessed as cell wall damage at 3 uM by TEM analysis; type: functional, organism-based
[25] = Selectivity index, ratio of IC50 for human WI-38 cells to IC50 for human PC-3 cells; type: toxicity; settings: WI-38 cells versus PC-3 cells, read-out: Ratio IC50
Staphylococcus aureus [26] = experiment: Bacteriostatic activity against Staphylococcus aureus MRSA-2 measured every 24 hrs for 5 days by serial dilution method; type: functional, organism-based; settings: time 5.0 day
MCF7 [27] = experiment: Induction of apoptosis in human MCF7 cells assessed as activation of Bad at 5 uM after 24 hrs by fluorescence assay; type: functional, cell-based
MCF7 [28] = experiment: Induction of apoptosis in human MCF7 cells assessed as dead cells at 10 uM after 24 hrs by annexin V-FITC and propidium iodide staining based flow cytometry (reference value: 0.15 %); type: functional
MCF7 [29] = experiment: Induction of mitochondrial membrane potential loss in human MCF7 cells assessed as cell population with mitochondrial membrane potential collapse at 5 uM after 24 hrs by JC-10 staining-based flow cytometric analysis (reference value: 1.05 %); type: functional
T98G = experiment: Cytotoxicity against human T98G cells assessed as reduction in cell viability by DAPI staining based assay
Staphylococcus aureus [30] = experiment: Induction of morphological changes in Staphylococcus aureus 209P assessed as cytoplasmic disintegration at 3 uM by TEM analysis; type: functional, organism-based
WI-38 = experiment: Cytotoxicity against human WI-38 cells assessed as reduction in cell viability by DAPI staining based assay
MCF7 [31] = experiment: Induction of mitochondrial membrane potential loss in human MCF7 cells assessed as cell population with intact mitochondrial membrane potential at 5 uM after 24 hrs by JC-10 staining-based flow cytometric analysis (reference value: 98.73 %); type: functional
HepG2 = experiment: Cytotoxicity against human HepG2 cells assessed as reduction in cell viability by DAPI staining based assay
Staphylococcus aureus [32] = experiment: Induction of morphological changes in Staphylococcus aureus 209P assessed as cell lysis at 3 uM by TEM analysis; type: functional, organism-based
MCF7 [33] = experiment: Induction of apoptosis in human MCF7 cells assessed as early apoptotic cells at 10 uM after 24 hrs by annexin V-FITC and propidium iodide staining based flow cytometry (reference value: 5.03 %); type: functional
MCF7 [34] = experiment: Induction of apoptosis in human MCF7 cells assessed as activation of p53 at 5 uM after 24 hrs by fluorescence assay; type: functional, cell-based
MCF7 [35] = experiment: Cytotoxicity against human MCF7 cells assessed as reduction in cell viability by DAPI staining based assay; type: functional
[36] = Hemolytic activity against human erythrocytes after 1 hr by digital photoelectric colorimetric method; type: ADME, cell-based, Erythrocyte
Cell membrane [37] = experiment: Induction of cytoplasmic membrane damage in Staphylococcus aureus 209P assessed as crystal violet absorption at 1.5 uM after 30 mins by crystal violet staining based microplate reader analysis (reference value: […] %); type: subcellular
[38] = Selectivity index, ratio of IC50 for human WI-38 cells to IC50 for human HepG2 cells; type: toxicity; settings: WI-38 cells versus HepG2 cells, read-out: Ratio IC50
[39] = Selectivity index, ratio of IC50 for human WI-38 cells to IC50 for human T98G cells; type: toxicity; settings: WI-38 cells versus T98G cells, read-out: Ratio IC50
MCF7 [40] = experiment: Induction of apoptosis in human MCF7 cells assessed as dead cells at 5 uM after 24 hrs by annexin V-FITC and propidium iodide staining based flow cytometry (reference value: 0.15 %); type: functional
[41] = Selectivity index, ratio of IC50 for human WI-38 cells to IC50 for human MCF7 cells; type: toxicity; settings: WI-38 cells versus MCF7 cells, read-out: Ratio IC50
MCF7 [42] = experiment: Induction of apoptosis in human MCF7 cells assessed as viable cells at 5 uM after 24 hrs by annexin V-FITC and propidium iodide staining based flow cytometry (reference value: 91.42 %); type: functional; settings: read-out: Activity
[43] = Selectivity index, ratio of IC50 for human WI-38 cells to IC50 for human A549 cells; type: toxicity; settings: WI-38 cells versus A549 cells, read-out: Ratio IC50
MCF7 [44] = experiment: Induction of apoptosis in human MCF7 cells assessed as activation of caspase-8 at 5 uM after 24 hrs by fluorescence assay; type: functional, cell-based
Staphylococcus aureus [45] = experiment: Bacteriostatic activity against Staphylococcus aureus MRSA-1 measured every 24 hrs for 5 days by serial dilution method; type: functional, organism-based

- MIC (Staphylococcus aureus [3]): 85.7 µM (≈ 31.3 µg/mL)
- MIC (Staphylococcus aureus [4]): 0.7 µM (≈ 0.256 µg/mL)
- MIC (Staphylococcus aureus [5]): 85.7 µM (≈ 31.3 µg/mL)
SMILES: CC1(C)S[C@@H]2[C@H](NC(=O)[C@H](N)c3ccc(O)cc3)C(=O)N2[C@H]1C(=O)O [AMOXICILLIN]
- MBC (Staphylococcus aureus [1]): 2.5 µM (≈ 0.914 µg/mL)
- MBC (Staphylococcus aureus [2]): 85.7 µM (≈ 31.3 µg/mL)
- MBC (Staphylococcus aureus [6]): 85.7 µM (≈ 31.3 µg/mL)

SMILES: C[C@@]12CC[C@@H]3[C@@](CC[C@H]4[C@@]3(C)CCC[C@@]4(C)C(=O)OCC[N+](C)(C)CCCCCCCCCCCC[N+](C)(C)CCOC(=O)[C@]3(C)CCC[C@@]4(C)[C@@H]5CC[C@@]6(C)C[C@]5(CC[C@@H]43)CC6=O)(CC1=O)C2.[Br-].[Br-]
- MBC (Staphylococcus aureus [1]): 0.7 µM
- Activity (Staphylococcus aureus [7]): Active
- IC50 (HeLa): 22 µM
- IC50 (PC-3): 13 µM
- Activity (MCF7 [8]): Active
- MBC (Staphylococcus aureus [2]): 1.4 µM
- selectivity ratio [9]: 1.1
- Activity (Cell membrane [10]): 7%
- Activity (MCF7 [11]): inactive
- Activity (MCF7 [12]): 28.47%
- viability at 10 µM (MCF7 [13]): 24.9%
- Activity (Cell membrane [14]): 63%
- Activity (MCF7 [15]): 25.95%
- Activity (Cell membrane [16]): 24%
- MIC (Staphylococcus aureus [17]): 0.7 µM
- Activity (MCF7 [18]): 27.59%
- Activity (MCF7 [19]): Active
- Activity (MCF7 [20]): 92.1%
- MIC (Staphylococcus aureus [3]): 1.4 µM
- IC50 (A549): 12.5 µM
- fold change (FC) (MCF7 [21]): >=2
- fold change (FC) (Staphylococcus aureus [22]): 15
- Activity (MCF7 [23]): 7.76%
- Activity (Staphylococcus aureus [24]): Active
- selectivity ratio [25]: 1.9
- Activity (Staphylococcus aureus [26]): Active
- Activity (MCF7 [27]): Active
- Activity (MCF7 [28]): 5.24%
- Activity (MCF7 [29]): 11.65%
- IC50 (T98G): 39.6 µM
- Activity (Staphylococcus aureus [30]): Active
- IC50 (WI-38): 25 µM
- Activity (MCF7 [31]): 88.28%
- IC50 (HepG2): 19.5 µM
- Activity (Staphylococcus aureus [32]): Active
- Activity (MCF7 [33]): 41.39%
- Activity (MCF7 [34]): Active
- IC50 (MCF7 [35]): 5 µM
- MIC (Staphylococcus aureus [5]): 2.8 µM
- HC50 at 1 h [36]: 20.3 µM
- Activity (Cell membrane [37]): 13%
- selectivity ratio [38]: 1.3
- selectivity ratio [39]: 0.6
- MBC (Staphylococcus aureus [6]): 2.8 µM
- Activity (MCF7 [40]): 16.61%
- selectivity ratio [41]: 5
- viability at 5 µM (MCF7 [42]): 29.9%
- selectivity ratio [43]: 2
- Activity (MCF7 [44]): inactive
- Activity (Staphylococcus aureus [45]): Active

SMILES: O=C(O)c1cn(C2CC2)c2cc(N3CCNCC3)c(F)cc2c1=O [CIPROFLOXACIN]
- MBC (Staphylococcus aureus [1]): 1.5 µM (≈ 0.497 µg/mL)
- MBC (Staphylococcus aureus [2]): 2.7 µM (≈ 0.895 µg/mL)
- MIC (Staphylococcus aureus [3]): 2.7 µM (≈ 0.895 µg/mL)
- MIC (Staphylococcus aureus [4]): 1.5 µM (≈ 0.497 µg/mL)
- MIC (Staphylococcus aureus [5]): 377 µM (≈ 125 µg/mL)
- MBC (Staphylococcus aureus [6]): 755 µM (≈ 250 µg/mL)
